Results published in patent US20040063580A1, “Bicyclic triazolone derivatives and a herbicides containing the same” (priority 2000, published 2004).

Assays:
[1] = system: velvetleaf; test: Herbicidal effects against weeds (post emergence), velvetleaf; type: in vivo; conditions: post emergence spray, evaluated two weeks after treatment
Method: (§1) Herbicidal Effects Against Weeds (Post Emergence)
(§2) After filling 300 g field soil in jiffypot™ having diameter of 10 cm, the soil was steam sterilized. Seeds of velvetleaf, redroot pigweed, tall morningglory and corn onto the surface of the soil were scattered, and then covered with the soil to a thickness of 0.5 cm for the weed, 1 cm for the crop. When the weed and the crop reached the designated growth stage, they were treated with the compound to be tested.
(§3) Preparation of the Test Solution and the Method of Treatment
(§4) The compound to be tested was dissolved in acetone which contain Tween 20™ and diluted with deionized water to prepare the test solution for 10 g/a and 1 g/a use. The test solution was sprayed on the pots in a device for spraying using spraygun.
(§5) Method of Indicating the Effect and Phytotoxicity
(§6) The effect of the compound tested on the weeds and phytotoxicity on the crops were evaluated two weeks after treatment with the compound as 6 grades from 0 to 5 shown in the Table 9 and 10.
(§7) In the Table 11 and 12, the herbicidal effects were indicated by the following evaluation index.

[2] = system: redroot pigweed; test: Herbicidal effects against weeds (post emergence), redroot pigweed; type: in vivo; conditions: post emergence spray, evaluated two weeks after treatment
Method: as §1, §2, §3, §4, §5, §6, §7

Structure (SMILES)	Evaluation index Velvet leaf ([1]; 10 g/a)	Evaluation index Redroot pigweed ([2]; 10 g/a)	Evaluation index Velvet leaf ([1]; 1 g/a)	Evaluation index Redroot pigweed ([2]; 1 g/a)	melting point
CCC(=O)N(c1cc(-n2nc3ccc(Cl)cn3c2=O)c(F)cc1C#N)S(=O)(=O)CC [A-7]	5 (maximum *all dead) 100)	5 (maximum *all dead) 100)			
CCS(=O)(=O)N(C(=O)C(C)(C)C)c1cc(-n2nc3ccc(Cl)cn3c2=O)c(F)cc1C#N [A-8]	5 (maximum *all dead) 100)	5 (maximum *all dead) 100)	5 (maximum *all dead) 100)	5 (maximum *all dead) 100)	
CC(C)S(=O)(=O)Nc1cc(-n2nc3ccc(Cl)cn3c2=O)c(F)cc1C#N [A-11]	5 (maximum *all dead) 100)	5 (maximum *all dead) 100)			
C#CC(C)Oc1cc(-n2nc3ccc(Cl)cn3c2=O)c(F)cc1Cl (stereo not drawn) [A-26]	5 (maximum *all dead) 100)	5 (maximum *all dead) 100)	5 (maximum *all dead) 100)	5 (maximum *all dead) 100)	
CCOC(=O)C(C)Oc1cc(-n2nc3ccc(Cl)cn3c2=O)c(F)cc1Cl (stereo not drawn) [A-28]	5 (maximum *all dead) 100)	5 (maximum *all dead) 100)	4 (maximum 87.6 to 99.9)	5 (maximum *all dead) 100)	
CCCS(=O)(=O)Nc1cc(-n2nc3ccc(Cl)cn3c2=O)c(F)cc1[N+](=O)[O-] [A-40]	5 (maximum *all dead) 100)	5 (maximum *all dead) 100)			
CC(C)S(=O)(=O)Nc1cc(-n2nc3ccc(Cl)cn3c2=O)c(F)cc1[N+](=O)[O-] [A-41]	5 (maximum *all dead) 100)	5 (maximum *all dead) 100)	5 (maximum *all dead) 100)	5 (maximum *all dead) 100)	
CCOC(=O)C=Cc1cc(-n2nc3ccc(Cl)cn3c2=O)c(F)cc1Cl [A-42, Ethyl 2-chloro-4-fluoro-5-(6-chloro-2,3-dihydro-3-oxo-1,2,4-triazolo[4,3-a]pyridin-2-yl)cinnamate]					162 to 165 °C
CCS(=O)(=O)Nc1cc(-n2nc3ccc(Br)cn3c2=O)ccc1C#N [A-45]			5 (maximum *all dead) 100)	5 (maximum *all dead) 100)	
CCOC(=O)COc1cc(-n2nc3cc(C)ccn3c2=O)c(F)cc1Cl [A-55]	4 (maximum 87.6 to 99.9)	5 (maximum *all dead) 100)			
C=C(Cl)COc1cc(-n2nc3ccc(Cl)cn3c2=O)c(F)cc1Cl [A-61]	4 (maximum 87.6 to 99.9)	5 (maximum *all dead) 100)			
CCS(=O)(=O)Nc1cc(-n2nc3n(c2=O)CC(C)S3)c(F)cc1C#N (stereo not drawn) [C-4]	5 (maximum *all dead) 100)	5 (maximum *all dead) 100)	5 (maximum *all dead) 100)	5 (maximum *all dead) 100)	
C#CCN(c1cc(-n2nc3ccc(Cl)cn3c2=O)c(F)cc1C#N)S(=O)(=O)CC [Compound No. A-5, 6-Chloro-2-[4-cyano-5-(N-ethanesulfonyl-N-propargylamino)-2-fluorophenyl]-1,2,4-triazolo[4,3-a]pyridin-3(2H)-one]					176 to 178 °C
C=CCOc1cc(-n2nc3ccc(Cl)cn3c2=O)c(F)cc1C#N [Compound No. A-13, 2-(5-Allyloxy-4-cyano-2-fluorophenyl)-6-chloro-1,2,4-triazolo[4,3-a]pyridin-3(2H)-one]					183 to 185 °C
C=CCOc1cc(-n2nc3ccc(Cl)cn3c2=O)c(F)cc1Cl [Compound No. A-24]	5 (maximum *all dead) 100)	5 (maximum *all dead) 100)	4 (maximum 87.6 to 99.9)	5 (maximum *all dead) 100)	
